Reference: ChEMBL document CHEMBL1136204, “Thymidine and thymidine-5'-O-monophosphate analogues as inhibitors of Mycobacterium tuberculosis thymidylate kinase” (Bioorg Med Chem Lett, 2003)

Target: T1, Thymidylate kinase (Mycobacterium tuberculosis, UniProt P9WKE1)
T1 sequence (P9WKE1 whole entry): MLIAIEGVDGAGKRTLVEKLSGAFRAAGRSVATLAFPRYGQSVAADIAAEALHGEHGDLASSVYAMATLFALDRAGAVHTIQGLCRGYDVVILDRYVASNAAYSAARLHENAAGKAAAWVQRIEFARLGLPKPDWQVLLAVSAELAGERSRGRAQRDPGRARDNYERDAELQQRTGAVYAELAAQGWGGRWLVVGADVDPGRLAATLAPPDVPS
Assay: Inhibitory activity against thymidine monophosphate kinase (TMPK) in Mycobacterium tuberculosis

Row | SMILES | Ki
1 | Cc1cn([C@H]2C[C@H](O)[C@@H](CO)O2)c(=O)[nH]c1=O [DOXRIBTIMINE] | 715 µM
2 | Cc1cn([C@@H]2O[C@H](CO)[C@@H](O)[C@@H]2O)c(=O)[nH]c1=O | 238 µM
3 | C[C@@H]1CC[C@H](n2cc(Br)c(=O)[nH]c2=O)O1 | 5 µM
4 | O=c1[nH]c(=O)n([C@H]2C[C@H](O)[C@@H](CO)O2)cc1C(F)(F)F [TRIFLURIDINE] | 97 µM
5 | Cc1cn([C@H]2C[C@H](O)[C@@H](CN=[N+]=[N-])O2)c(=O)[nH]c1=O | 7 µM
6 | CC(=O)NC[C@H]1O[C@@H](n2cc(C)c(=O)[nH]c2=O)C[C@@H]1O | 90 µM
7 | Cc1cn([C@@H]2CO[C@H](COP(=O)(O)O)[C@@H](O)C2)c(=O)[nH]c1=O | 150 µM
8 | O=c1[nH]c(=O)n([C@H]2C[C@H](O)[C@@H](COP(=O)(O)O)O2)cc1Cc1ccccc1 | 28 µM
9 | C[C@H]1O[C@@H](n2cc(F)c(=O)[nH]c2=O)[C@H](O)[C@@H]1O [DOXIFLURIDINE] | 560 µM
10 | Cc1cn([C@@H]2O[C@H](CO)[C@@H](O)[C@H]2F)c(=O)[nH]c1=O | 122 µM
11 | Cc1cn([C@@H]2O[C@H](CI)[C@@H](N=[N+]=[N-])[C@H]2O)c(=O)[nH]c1=O | 490 µM
12 | CCc1cn([C@H]2C[C@H](O)[C@@H](CO)O2)c(=O)[nH]c1=O [EDOXUDINE] | 1140 µM
13 | Cc1cn([C@@H]2O[C@H](COP(=O)(O)O)[C@@H](N)[C@H]2O)c(=O)[nH]c1=O | 45 µM
14 | O=c1[nH]c(=O)n([C@@H]2O[C@H](CO)[C@@H](O)[C@H]2O)cc1F [5-FLUOROURIDINE] | 521 µM
15 | O=c1[nH]c(=O)n([C@H]2C[C@H](O)[C@@H](COP(=O)(O)O)O2)cc1-c1cccs1 | 270 µM
16 | Cc1cn([C@H]2C[C@H](O)[C@@H](CN)O2)c(=O)[nH]c1=O | 12 µM
17 | Cc1cn([C@@H]2O[C@H](COP(=O)(O)O)[C@@H](O)[C@H]2N)c(=O)[nH]c1=O | 120 µM
18 | O=c1[nH]c(=O)n([C@H]2C[C@H](O)[C@@H](COP(=O)(O)O)O2)cc1CO | 110 µM
19 | O=c1[nH]c(=O)n([C@H]2C[C@H](O)[C@@H](COP(=O)(O)O)O2)cc1-c1ccco1 | 140 µM
20 | Cc1cn([C@@H]2O[C@H](C)[C@@H](N)[C@H]2O)c(=O)[nH]c1=O | 1900 µM
21 | Cc1cn([C@H]2C[C@H](F)[C@@H](CO)O2)c(=O)[nH]c1=O [ALOVUDINE] | 28 µM
22 | Cc1cn([C@@H]2O[C@H](CO)[C@@H](N=C(N)N)[C@H]2O)c(=O)[nH]c1=O | 140 µM
23 | Cc1cn([C@H]2C[C@H](N)[C@@H](CO)O2)c(=O)[nH]c1=O [3-AMINO- 3-DEOXYTHYMIDINE] | 230 µM

Target: T1, Thymidylate kinase
Assay: Inhibitory activity against thymidine monophosphate kinase (TMPKmt) in Mycobacterium tuberculosis using HPLC chromatography test

Row | SMILES | Ki
24 | Cc1cn([C@H]2C[C@H](O)[C@@H](COP(=O)(O)OP(=O)(O)OP(=O)(O)OP(=O)(O)OP(=O)(O)OC[C@H]3O[C@@H](n4cnc5c(N)ncnc54)[C@H](O)[C@@H]3O)O2)c(=O)[nH]c1=O | 30 µM
